Measured values published in patent USRE35904E, “Method and probes for detecting nucleoside transporter and method for producing the probes” (Governors of the University of Alberta, priority 1995, dated 1998).

Columns and labels:
[1] = molecular target: T1, es nucleoside transporter (Mus musculus, UniProt Q9JIM1); assay: [3H]NBMPR equilibrium binding to L1210/B23.1 cells and its inhibition by SAENTA-fluorescein probes; details: 22°, replots of Kd(app)/Bmax versus [probe], read-out: Ki (mean ± S.D.)
T1 construct: endogenous in cells; host or cells: L1210/B23.1 mouse leukemia cells
T1 sequence (Q9JIM1 1-460): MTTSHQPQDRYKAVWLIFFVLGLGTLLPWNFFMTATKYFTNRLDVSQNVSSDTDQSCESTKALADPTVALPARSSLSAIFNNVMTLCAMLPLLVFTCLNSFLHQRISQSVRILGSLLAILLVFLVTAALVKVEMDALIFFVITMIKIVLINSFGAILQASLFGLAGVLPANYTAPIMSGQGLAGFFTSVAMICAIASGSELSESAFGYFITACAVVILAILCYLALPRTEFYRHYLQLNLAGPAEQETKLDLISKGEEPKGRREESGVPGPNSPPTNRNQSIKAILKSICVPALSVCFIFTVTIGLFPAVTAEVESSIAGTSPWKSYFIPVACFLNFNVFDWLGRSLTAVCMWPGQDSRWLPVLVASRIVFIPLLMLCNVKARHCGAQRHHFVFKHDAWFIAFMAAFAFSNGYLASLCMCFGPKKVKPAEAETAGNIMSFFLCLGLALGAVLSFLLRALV

[2] = molecular target: T1, es nucleoside transporter; assay: Flow cytometric staining of L1210/B23.1 cells (es nucleoside transporter-expressing) by SAENTA-fluorescein probe; type: cell-based
Experimental: (§1) Flow cytometric measurements of binding of .[.SAENTA-x2 -fluorescein.]. .Iadd.SAENTA-X2-fluorescein .Iaddend.prepared as in Example 3 was carried out as in Example 4 using two clonal lines of cultured mouse leukemia L 1210 cells, L 1210/B23.1 and L 1210/MA-27.1. L 1210/B23.1 expresses NBMPR binding sites and nuclesoside transporter activity whereas L 1210/MA-27.1 cells lack both of these features.
(§2) Staining conditions were chosen to minimise non-specific fluorescence signals from L 1210/MA-27.1 cells treated with the nucleoside.
(§3) Cells were exposed for 10 min at 4° C. to phosphate-buffered (pH 8.0) salts medium containing 40 nM .[.5(SAENTA-xx2)fluorescein.]. .Iadd.5-(SAENTA-X2)-fluorescein .Iaddend.prior to flow cytometric analysis in a BD FACSan instrument; 10^5 cells were analysed. Cells in replicate assay mixtures were also exposed for 5 min at 22° C. to medium containing 10 μM NBMPR and then for 10 min at 4° C. to medium containing both NBMPR and .[.5-SAENTA-x2)-fluorescein.]. .Iadd.5-(SAENTA-X2)-fluorescein.Iaddend..
(a) Clonal lines of mouse leukemia cells were exposed for 10 min at 4° C. to phosphate buffered (pH 8.0) saline containing […] .[.5-(SAENTA-x2)-fluorescein.]. .Iadd.5-(SAENTA-X2)-fluorescein .Iaddend.(prepared as in Example 3) prior to flow cytometric analysis in a BD FACScan instrument; 10^4 cells were analysed. Cells in replicate mixtures were also exposed for 5 min at 22° C. to medium containing 10 μM NBMPR and then for 10 min at 4° C. to medium containing both NBMPR and .[.5-(SAENTA-x2)-fluorescein.]. .Iadd.5-(SAENTA-X2)-fluorescein.Iaddend.. L 1210/B23.1 cells express the es nucleoside transport system whereas L 1210/MA-27.1 cells lack that activity.

[3] = test system: L 1210/MA-27.1 cells; assay: Flow cytometric staining of L1210/MA-27.1 cells (lacking es nucleoside transporter); type: cell-based, mouse; details: with or without NBMPR pretreatment, FIG. 9
Experimental: as §1, §2, §3
(a) Clonal lines of mouse leukemia cells were exposed for 10 min at 4° C. to phosphate buffered (pH 8.0) saline containing […] .[.5-(SAENTA-x2)-fluorescein.]. .Iadd.5-(SAENTA-X2)-fluorescein .Iaddend.(prepared as in Example 3) prior to flow cytometric analysis in a BD FACScan instrument; 10^4 cells were analysed. […]

[4] = molecular target: T1, es nucleoside transporter; assay: Concentration-dependence of fluorescent staining of L1210/B23.1 cells by flow cytometry; type: cell-based; details: 40 min, 4° C., pH 8.0, autofluorescence 298
Experimental: (b) Concentration-dependence of fluorescent staining of L 1210/23.1 cells by .[.5-(SAENTA-x2)-fluorescein.]. .Iadd.5-(SAENTA-X2)-fluorescein .Iaddend.was measured and the results are set out in Table 4.
Cells in PBS at pH 8.0 were incubated with the listed concentrations of the SAENTA-fluor probe at 4° C. for 40 min prior to flow cytometric analysis.

[5] = test system: es nucleoside transporter; details: Gati et al. 1987; cited from earlier work

## O=C1OC2(c3ccc(O)cc3Oc3cc(O)ccc32)c2ccc(NC(=S)NCCSC[C@H]3O[C@@H](n4cnc5c(NCc6ccc([N+](=O)[O-])cc6)ncnc54)[C@H](O)[C@@H]3O)cc21 [5-(SAENTA-X2)-fluorescein, 5'-S-[2-(Fluorescein-5-thioureidyl)ethyl]-N^6-(4-nitrobenzyl)-5'-thioadenosine]
[1]
  Ki: 0.017 ± 0.008 µM
[2]; 40 mM (so in the source), 10 min, 4° C., pH 8.0, FIG. 9
  staining of L1210/B23.1 cells: stained 1210/B23.1 cells
[2]; L1210/B23.1 versus L1210/MA27.1, FIG. 9
  specificity of staining of the cell lines: specific for the es nucleoside transporter system
[3]
  fluorescence of L1210/MA27.1 cells after staining compared with autofluorescence: very similar
[4]; 5 nM
  Fluorescence intensity: 301 mean channel no.
[4]; 10 nM
  Fluorescence intensity: 344 mean channel no.
[4]; 20 nM
  Fluorescence intensity: 372 mean channel no.
[4]; 40 nM
  Fluorescence intensity: 407 mean channel no.
[4]; 60 nM
  Fluorescence intensity: 427 mean channel no.
[4]; 80 nM
  Fluorescence intensity: 429 mean channel no.
[4]; 160 nM
  Fluorescence intensity: 497 mean channel no.
[4]; 320 nM
  Fluorescence intensity: 601 mean channel no.
[4]; 640 nM
  Fluorescence intensity: 691 mean channel no.
[4]; 1280 nM
  Fluorescence intensity: 761 mean channel no.

## [^125 I]Iodohydroxynitrobenzylthioinosine [[125I]Iodohydroxynitrobenzylthioinosine]
[5]
  non-specific adsorption: high non-specific adsorption
